Test system: up to 32 different microorganisms
Experiment: in vitro antibacterial activity (MIC), agar dilution on Brain Heart Infusion (BHI) agar with Steers replicator
Format: cell-based
Conditions: unit assumed
Outline: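 Erythromycin A served as the same-class reference for test-to-test comparability. Test compound was tested over twelve successive dilutions in BHI agar; plates were incubated 20 to 24 hours at 35°-37° C, with MIC taken as the lowest concentration showing no growth, slight haze, or sparse colonies.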

Row | SMILES | MIC (organism code AA) | MIC (organism code BB) | MIC (organism code CC) | MIC (organism code DD) | MIC (organism code EE) | MIC (organism code FF) | MIC (organism code GG) | MIC (organism code HH) | MIC (organism code II) | MIC (organism code JJ) | MIC (organism code KK) | MIC (organism code LL) | MIC (organism code MM) | MIC (organism code NN) | MIC (organism code OO) | MIC (organism code PP) | MIC (organism code QQ) | MIC (organism code RR) | MIC (organism code SS) | MIC (organism code TT) | further results
1 | CC[C@H]1OC(=O)[C@H](C)C(=O)[C@H](C)[C@@H](O[C@@H]2O[C@H](C)C[C@H](N(C)C)[C@H]2O)[C@@](C)(OCC#Cc2cnc3ccc([N+](=O)[O-])cc3c2)C[C@@H](C)C(=O)[C@H](C)[C@H]2NC(=O)O[C@@]21C [Example 248, Compound of Formula (IX): L is CO, T is NH, R is —CH2—C≡C-(6-nitro-3-quinolyl)] | 0.05 µg/mL | 0.05 µg/mL | > 100 µg/mL | 0.05 µg/mL | 0.05 µg/mL | 0.02 µg/mL | > 100 µg/mL | 0.05 µg/mL | 0.02 µg/mL | 0.02 µg/mL | ≤ 0.005 µg/mL | ≤ 0.005 µg/mL | 0.39 µg/mL | 0.1 µg/mL | 0.02 µg/mL | 0.1 µg/mL | 50 µg/mL | 0.39 µg/mL | 50 µg/mL | > 100 µg/mL | MIC (organism code UU): 0.39 µg/mL; MIC (organism code VV): 0.02 µg/mL; MIC (organism code WW): 3 µg/mL; MIC (organism code XX): 0.03 µg/mL; MIC (organism code YY): 0.03 µg/mL; MIC (organism code ZZ): 4 µg/mL; MIC (organism code ZZA): 0.25 µg/mL
2 | CC[C@H]1OC(=O)[C@H](C)C(=O)[C@H](C)[C@@H](O[C@@H]2O[C@H](C)C[C@H](N(C)C)[C@H]2O)[C@@](C)(OCC#Cc2ccccc2)C[C@@H](C)C(=O)[C@H](C)[C@H]2NC(=O)O[C@@]21C [Example 249, Compound of Formula (IX): L is CO, T is NH, R is —CH2—C≡C-phenyl] | 0.1 µg/mL | 0.1 µg/mL | > 100 µg/mL | 0.2 µg/mL | 0.2 µg/mL | 0.1 µg/mL | > 100 µg/mL | 0.1 µg/mL | 0.05 µg/mL | 0.01 µg/mL | 0.02 µg/mL | 0.02 µg/mL | 100 µg/mL | 0.1 µg/mL | 0.01 µg/mL | 0.1 µg/mL | 100 µg/mL | 0.39 µg/mL | > 100 µg/mL | > 100 µg/mL | MIC (organism code UU): 0.39 µg/mL; MIC (organism code VV): 0.1 µg/mL; MIC (organism code WW): 4 µg/mL; MIC (organism code XX): 0.03 µg/mL; MIC (organism code YY): 0.03 µg/mL; MIC (organism code ZZ): > 128 µg/mL; MIC (organism code ZZA): 0.25 µg/mL
3 | CC[C@H]1OC(=O)[C@H](C)C(=O)[C@H](C)[C@@H](O[C@@H]2O[C@H](C)C[C@H](N(C)C)[C@H]2O)[C@@](C)(OCC#Cc2ccc3ccccc3c2)C[C@@H](C)C(=O)[C@H](C)[C@H]2NC(=O)O[C@@]21C [Example 251, Compound of Formula (IX): L is CO, T is NH, R is —CH2—C≡C-(2-naphthyl)] | 0.1 µg/mL | 0.1 µg/mL | > 100 µg/mL | 0.1 µg/mL | 0.1 µg/mL | 0.1 µg/mL | > 100 µg/mL | 0.1 µg/mL | 0.1 µg/mL | 0.02 µg/mL | 0.05 µg/mL | 0.05 µg/mL | 6.2 µg/mL | 0.2 µg/mL | 0.02 µg/mL | 0.2 µg/mL | > 100 µg/mL | 1.56 µg/mL | > 100 µg/mL | > 100 µg/mL | MIC (organism code UU): 0.2 µg/mL; MIC (organism code VV): 0.05 µg/mL; MIC (organism code WW): 16 µg/mL; MIC (organism code XX): 0.125 µg/mL; MIC (organism code YY): 0.25 µg/mL; MIC (organism code ZZ): > 128 µg/mL; MIC (organism code ZZA): 1 µg/mL
4 | CC[C@H]1OC(=O)[C@H](C)C(=O)[C@H](C)[C@@H](O[C@@H]2O[C@H](C)C[C@H](N(C)C)[C@H]2O)[C@@](C)(OCC#Cc2ccc3cc(OC)ccc3c2)C[C@@H](C)C(=O)[C@H](C)[C@H]2NC(=O)O[C@@]21C [Example 252, Compound of Formula (IX): L is CO, T is NH, R is —CH2—C≡C-(6-methoxy-2-naphthyl)] | 0.1 µg/mL | 0.1 µg/mL | > 100 µg/mL | 0.1 µg/mL | 0.1 µg/mL | 0.1 µg/mL | > 100 µg/mL | 0.1 µg/mL | 0.05 µg/mL | 0.002 µg/mL | 0.02 µg/mL | 0.05 µg/mL | 3.1 µg/mL | 0.1 µg/mL | 0.02 µg/mL | 0.2 µg/mL | > 100 µg/mL | 0.78 µg/mL | > 100 µg/mL | > 100 µg/mL | MIC (organism code UU): 0.2 µg/mL; MIC (organism code VV): 0.05 µg/mL; MIC (organism code WW): 2 µg/mL; MIC (organism code XX): 0.03 µg/mL; MIC (organism code YY): 0.03 µg/mL; MIC (organism code ZZ): 4 µg/mL; MIC (organism code ZZA): 0.25 µg/mL
5 | CC[C@H]1OC(=O)[C@H](C)C(=O)[C@H](C)[C@@H](O[C@@H]2O[C@H](C)C[C@H](N(C)C)[C@H]2O)[C@@](C)(OCC#Cc2ccc3cc(Cl)ccc3c2)C[C@@H](C)C(=O)[C@H](C)[C@H]2NC(=O)O[C@@]21C [Example 253, Compound of Formula (IX): L is CO, T is NH, R is —CH2—C≡C-(6-chloro-2-naphthyl)] | 0.05 µg/mL | 0.05 µg/mL | > 100 µg/mL | 0.05 µg/mL | 0.1 µg/mL | 0.05 µg/mL | > 100 µg/mL | 0.05 µg/mL | 0.05 µg/mL | 0.02 µg/mL | 0.02 µg/mL | 0.01 µg/mL | 0.78 µg/mL | 0.05 µg/mL | 0.01 µg/mL | 0.1 µg/mL | 50 µg/mL | 0.3 µg/mL | 50 µg/mL | > 100 µg/mL | MIC (organism code UU): 0.2 µg/mL; MIC (organism code VV): 0.02 µg/mL; MIC (organism code WW): 2 µg/mL; MIC (organism code XX): 0.015 µg/mL; MIC (organism code YY): 0.03 µg/mL; MIC (organism code ZZ): 1 µg/mL; MIC (organism code ZZA): 0.25 µg/mL
